The values that follow come from patent US10806694B2, “Nanoparticles for photodynamic therapy, X-ray induced photodynamic therapy, radiotherapy, radiodynamic therapy, chemotherapy, immunotherapy, and any combination thereof” (The University of Chicago, priority 2014, dated 2020).

Each structure is given as a SMILES string.

This test deals with human head and neck cancer cells SQ20B. Nature of the test: In vitro PDT cytotoxicity (MTS). The format is cell-based. As to conditions: 5-100 μM ligand, 640 nm LED 100 mW/cm^2, 15 min (90 J/cm^2) or 30 min (180 J/cm^2). Here is the method: The cytotoxicity of DBP-UiO and H2DBP was evaluated in human head and neck cancer cells SQ20B which are resistant to cisplatin and conventional radiotherapy. SQ20B cells were seeded on 96-well plates at 2000 cells/well. The cells were treated with DBP-UiO and H2DBP at various ligand concentrations (5, 10, 20, 50 and 100 μM base on ligand concentrations) after a 24-h incubation. A further incubation of 4 h was allowed, followed by replacing the culture medium with 100 μL of fresh DMEM/F12 medium. The cells were irradiated with LED light (640 nm) at 100 mW/cm^2 for 15 min (total light dose 90 J/cm^2) or 30 min (total light dose 180 J/cm^2), respectively. The cells without irradiation treatment served as controls. The cells were further incubated to achieve a total incubation time of 72 h with DBP-UiO or H2DBP. The cell viability was detected by (3-(4,5-dimethylthiazol-2-yl)-5-(3-carboxymethoxyphenyl)-2-(4-sulfophenyl)-2H-tetra-zolium) (MTS) assay (Promega, Madison, Wis., United States of America).
To further confirm the PDT efficacy of DBP-UiO, SQ20B cancer cells were treated with H2DBP or DBP-UiO at various concentrations (5, 10, 20, 50 and 100 μM based on ligand concentrations), the cells were irradiated with LED light (640 nm, 100 mW/cm^2) for 15 min (total light dose 90 J/cm^2) or 30 min (total light dose 180 J/cm^2), respectively.

On to `O=C(O)c1ccc(-c2c3nc(cc4ccc([nH]4)c(-c4ccc(C(=O)O)cc4)c4nc(cc5ccc2[nH]5)C=C4)C=C3)cc1` [H2DBP, 5,15-di(p-benzoato)porphyrin], for which the “PDT efficacy (cell viability)” value was “moderate PDT efficacy only at 20 μM dose with 30 min light irradiation”.
